# Data reported in patent publication US10034824B2, “Hair shaping composition” (Conopco, Inc., priority 2014, dated 2018).
# Experiment: Hair switch volume-down test (switches dosed, combed straight, dried overnight, imaged)
# Method: Dark brown European wavy#6 switches of length 25 cm and weight 2 gms (from the same batch of switches), were dosed with 0.2 ml of a 2% solution of monoglucosamine adipate. Control switches were treated with water.
# All switches were combed straight and left to dry overnight.
# When dry the switches were combed straight and pictures taken. […] The percentage benefit (i.e. decrease in volume) with respect to control (water) is also given.
# [1] = 0.2 ml of a 2% solution on 25 cm, 2 gms switches, combed straight, dried overnight
substance,measurement,setting,value
monoglucosamine adipate,% benefit (decrease in volume with respect to control (water)),[1],8.0%
same,Volume (projection of the switch image on to the screen),[1],13047 mm^2
same,hair volume-down benefit,"2% solution vs water control, result in words",significant hair volume-down benefit
